Measurements taken from PubChem BioAssay AID651781 (The Scripps Research Institute Molecular Screening Center, 2012).
The source made the active and inactive calls.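 How the source made its calls: active means IC50 at or below 10 µM; inactive means IC50 above 10 µM.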

Target: GAL4 DBD-VP16 fusion transactivation (Human herpesvirus 1 VP16)
Test: GAL4-VP16 transactivation reporter inhibitors, late-stage follow-up, counter-screen for SRC3 inhibitor project, cell-based, luminescence, dose response, powder samples (AID 651781)
Settings: HEK293 GAL4-VP16 UAS luciferase reporter

SMILES	IC50
CC(C)(C)c1ccc(-c2noc(CCC(=O)Nc3cccnc3)n2)cc1	9.65 µM
O=C(COC(=O)c1ccc[nH]c1=O)Nc1ccc(N2CCCCC2)cc1	> 35.9 µM (inactive)
CN1C(=O)C2(C(C#N)=C(N)N(c3cc(Cl)cc(Cl)c3)C3=C2C(=O)CCC3)c2ccccc21 (stereo not drawn)	inactive
CN1C(=O)C2(C(C#N)=C(N)N(c3cc(Cl)cc(Cl)c3)C3=C2C(=O)CC(C)(C)C3)c2ccccc21 (stereo not drawn)	inactive
CCCNC(=O)c1nnsc1S(=O)(=O)c1ccc(Cl)cc1	6.04 µM

Continued, values first:

IC50	SMILES
inactive	O=C(Nc1ccccc1Oc1ccccc1)c1cc([N+](=O)[O-])ccc1Cl
inactive	OCCN1CCN(C(=S)c2ccc(-c3ccccc3)cc2)CC1
inactive	Cc1ccc(OCC(=O)c2cc(C)n(-c3ccccc3)c2C)c([N+](=O)[O-])n1
